The text below walks through data of US20160120854A1, “PHARMACEUTICAL COMPOSITIONS” (BAYER PHARMA AKTIENGESELl SCHAFT, priority 2013, published 2016).

Broadly, the solubility is the concentration that dissolves in the medium under given conditions.

What all share (assay type): physicochemical
Data set [1] in a line: Nine months stability study in PEG400 based LSF. Conditions: nine months at 25 and 40° C.
The nature of data set [2]: Stability in PEG6000 melt. The note with it: 20% drug load, minimally two months, room temperature. How it is done: Nine parts of PEG6000 were melted in an aluminium cup (70° to 90° C.). One part of (2R)-2-(4-fluorophenyl)-N-[4-(2-{[2-methoxy-4-(methylsulfonyl)phenyl]-amino}[1,2,4]triazolo[1,5-a]pyridin-6-yl)phenyl]propanamide was added to the PEG 6000 melt. The mixture was stirred with a glass stick at approximately 90° C. After complete dissolution of (2R)-2-(4-fluorophenyl)-N-[4-(2-{[2-methoxy-4-(methylsulfonyl)phenyl]amino}[1,2,4]triazolo[1,5-a]pyridin-6-yl)phenyl]propanamide, the melt was cooled down by embedding the cup in a ice-water/NaCl mixture for several minutes. The solidified melt was pestled. (2R)-2-(4-fluorophenyl)-N-[4-(2-{[2-methoxy-4-(methylsulfonyl)phenyl]-amino}[1,2,4]triazolo[1,5-a]pyridin-6-yl)phenyl]propanamide is stable in PEG6000 melt with 20% drug load for minimally two months at room temperature.

Data set [3] can be described thus: Solubility in PEG400 based vehicles.

Values after ≈ are worked out from the molar mass of the structure shown.

Regarding `COc1cc(S(C)(=O)=O)ccc1Nc1nc2ccc(-c3ccc(NC(=O)[C@H](C)c4ccc(F)cc4)cc3)cn2n1` [compound A, (2R)-2-(4-fluorophenyl)-N-[4-(2-{[2-methoxy-4-(methylsulfonyl)phenyl]-amino}[1,2,4]triazolo[1,5-a]pyridin-6-yl)phenyl]propanamide], the “stability in PEG400 based LSF” value in data set [1] is on record as “no significant time dependant instability”. Also, the “stability in PEG6000 melt” value in data set [2] is reported as “stable”. The solubility was approximately 25 mg/mL (≈ 44.7 mM) in data set [3] (aqueous with cosolvent or surfactant or cyclodextrin, in PEG400/PVP/water 8:1:1); approximately 25 mg/mL (≈ 44.7 mM) in data set [3] (organic solvent or mixture, in PEG400/PVP 8:2); approximately 25 mg/mL (≈ 44.7 mM) in data set [3] (organic solvent or mixture, in PEG400 based LSF (PEG400/Tween 80/L-Menthol 97:2, 5:0, 5)).
